Measured values taken from patent US12202816B2 (CALLIDITAS THERAPEUTICS SUISSE SA, priority 2018, dated 2025).

Molecular target: hNOX enzymes
Assay: ROS production measurement on hNOX membranes (Amplex Red fluorescence assay, assay 1)
Format: biochemical, human
Conditions: membranes from CHO or HEK cells overexpressing hNox enzymes; Nox isoform not stated; non linear regression; read-out: Nox inhibitory constant Ki
Method: Reactive oxygen species (ROS) production generated by hNOX enzymes was measured by fluorescence in both cellular and membrane-based assays using the Amplex® Red reagent. In the presence of horseradish peroxidase (HRP), the Amplex® Red reagent (10-acetyl-3,7-dihydroxyphenoxazine, AR), which is a colorless and nonfluorescent derivative of dihydroresorufin, reacts with H2O2 with a 1:1 stoichiometry to produce highly fluorescent resorufin at an excitation and emission wavelengths of 544 nm and 590 nm, respectively.
Membranes from CHO or HEK cells overexpressing hNox enzymes were prepared as previously described (Palicz et al., 2001, J. Biol. Chem, 76, 3090). After resuspension in sonication buffer (11% sucrose, 120 mM NaCl, 1 mM EGTA in PBS, pH 7.4), cells were broken by sonication and centrifuged (200 g, 10 min). The supernatant was layered onto a 17/40% (w/v) discontinuous sucrose gradient and centrifuged (150,000 g for 30 min). Membrane fractions were collected from the 17/40% interface, aliquoted in 10 μl samples and were stored at −80° C. Protein concentration was determined with Bradford reagent. Flavin Adenine Dinucleotide (FAD) (catalog #F6625-500MG), MgCl2 (catalog #M8266-100G), Phosphatidic Acid (PA) (catalog #P3591-50MG) were purchased from Sigma-Aldrich. Horseradish peroxidase (HRP) (catalog #10108090001) was purchased from Roche. NADPH (catalog #A1395, 0500) was purchased from Applichem. Amplex red (AR) (catalog #A22177) was purchased from Invitrogen. 96 well polypropylene and black plates were purchased from Milian (catalog #055529 and #055218, respectively). FLUOstar OPTIMA microplate reader was supplied by BMG Labtech (Germany). Zephyr® Compact Liquid Handling Workstation was supplied by PerkinElmer (Germany).
Assay 1: ROS Production Measurement on hNOX Membranes
All Solutions were placed on ice and protected from light. The final concentration in the 1× hNOX membrane fluorescent assay buffer were PBS pH7, 6 μM FAD, 15 μM PA, 1 mM MgCl2, 12.5 μM AR, 0.02 u/ml, 125 ng membranes, 1.5 μg of cofactors and 30 μM NADPH. The NADPH was dissolved in water at a concentration of 12 mM and was transferred in a metal transfer plate kept at 4° C. The NADPH was added to the assay plate to initiate the reaction just before the measurement.
Serial dilution (1:3, 10 serial dilution) of the compounds was performed in 100% DMSO in 96 well polypropylene plate—Row B—H Column 1-10, Row A, Column 1-10 contained reference compound. Starting concentration was 10^−2 M (10 mM). Final concentration in assay was 10^−4 M (100 μM). Compounds were diluted twice in PBS buffer by transferring 30 μl/well of PBS into 30 μl/well compounds sample in DMSO using Zephyr® Compact Liquid Handling Workstation. Control wells-columns 1 and 12-contained 60 μl DMSO in 50% PBS pH7.
Reaction mixture is dispensed using Zephyr® Compact Liquid Handling Workstation. 90 μl of mix with membrane were dispensed into 96 well black plates—Column 2-11, Column 1 Row A-D, Column 12 Row E-H. 90 μl of control mix were dispensed into assay plate—Column 1 Row E-H, Column 12 Row A-D, which are wells for measuring background signal. 2 μl of compounds were dispensed into each well of assay plate using Zephyr® Compact Liquid Handling Workstation. The reaction mixture with compounds was incubated in assay plates for 20 min at 37° C. in a Titramax microplate incubator with gentle agitation. 10 μl of NADPH is dispensed to the assay plate. Fluorescence reading was recorded with the FLUOstar OPTIMA microplate reader for 10 min at 37° C. (8 cycles, 1 cycle duration 55 sec).
The Table 14 below summarizes the inhibition of NOX activity as measured by the above described assay 1 and expressed by their inhibitory constant calculated by non linear regression analysis using GraphPad Prism Software (GraphPad Software Co., San Diego, CA): […]

- Ki: 226 nM
Compound: COc1cncc(-c2ccc3c(cc(-c4cnc5c(c4)OCCN5C)n3C)c2Cl)c1 [Example 119]
